Source: patent publication US20020111274A1, “1-alkyl-3-[1-(substituted phenyl) benzotriazol-6-yl] uracils” (BASF Aktiengesellschaft, priority 2000, published 2002)

Tests used:
Parameters in all cases: scale not given here
GLXMAW Soybean, Williams = assay: Preemergence herbicidal evaluation, GLXMAW; type: in vivo, Glycine max, (L.) Merr. cv Williams; settings: preemergence
Procedure, shortened: (§1)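 First, seed is blended with potting soil and sown over roughly an inch of soil per cup. Next, the surface is sprayed with an aqueous acetone solution delivering about 0.013–0.800 kg/ha. Finally, cups are grown in the greenhouse and rated after 4–5 weeks.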

ECHOG Barnyardgrass [1] = assay: Postemergence herbicidal evaluation, ECHOG; type: in vivo, Echinochloa crus-galli, (L.) Beau; settings: postemergence spray, rated about two-three weeks after treatment
Procedure, shortened: (§2)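 Ratings from greenhouse plants scored about two to three weeks after a foliar spray; data from multiple tests averaged. Seedlings about two weeks old received roughly 0.006–0.400 kg/ha active compound in 80/20 acetone/water with 1.0% methylated seed oil.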

SETVI Foxtail, Green = assay: Postemergence herbicidal evaluation, SETVI; type: in vivo, Setaria viridis, (L.) Beau; settings: postemergence spray, rated about two-three weeks after treatment
Procedure, shortened: as §2

ECHOG Barnyardgrass [2] = assay: Preemergence herbicidal evaluation, ECHOG; type: in vivo, Echinochloa crus-galli, (L.) Beau; settings: preemergence
Procedure, shortened: as §1

ORYSAT Rice, Tebonnet [3] = assay: Postemergence herbicidal evaluation, ORYSAT; type: in vivo, Oryza sativa, (L.); settings: postemergence spray, rated about two-three weeks after treatment
Procedure, shortened: as §2

ORYSAT Rice, Tebonnet [4] = assay: Preemergence herbicidal evaluation, ORYSAT; type: in vivo, Oryza sativa, (L.); settings: preemergence
Procedure, shortened: as §1

[5] = tested on: TRZAWR Wheat, Winter, cv Riband; assay: Postemergence herbicidal evaluation, TRZAWR; type: in vivo, Triticum aestivum; settings: postemergence spray, rated about two-three weeks after treatment
Procedure, shortened: as §2

GALAP Galium [6] = assay: Postemergence herbicidal evaluation, GALAP; type: in vivo, Galium aparine; settings: postemergence spray, rated about two-three weeks after treatment
Procedure, shortened: as §2

ABUTH Velvetleaf = assay: Preemergence herbicidal evaluation, ABUTH; type: in vivo, Abutilon theophrasti, Medic.; settings: preemergence
Procedure, shortened: as §1

GALAP Galium [7] = assay: Preemergence herbicidal evaluation, GALAP; type: in vivo, Galium aparine; settings: preemergence
Procedure, shortened: as §1

[8] = tested on: TRZAWR Wheat, Winter, cv Riband; assay: Preemergence herbicidal evaluation, TRZAWR; type: in vivo, Triticum aestivum; settings: preemergence
Procedure, shortened: as §1

AMBEL Ragweed, Common = assay: Postemergence herbicidal evaluation, AMBEL; type: in vivo, Ambrosia artemisifolia, L.; settings: postemergence spray, rated about two-three weeks after treatment
Procedure, shortened: as §2

CCc1cccc(-n2nnc3cc(F)c(-n4c(=O)cc(C(F)(F)F)n(C)c4=O)cc32)c1 [Example 29, 3-[1-(3-ethylphenyl)-5-fluoro-1H-1,2,3-benzotriazol-6-yl]-1-methyl-6-(trifluoromethyl)-2,4(1H,3H)-pyrimidinedione]
GLXMAW herbicidal rating (GLXMAW Soybean, Williams; rate 0.016 kg/ha): 0.0
GLXMAW herbicidal rating (GLXMAW Soybean, Williams; rate 0.032 kg/ha): 1.0
GLXMAW herbicidal rating (GLXMAW Soybean, Williams; rate 0.062 kg/ha): 4.0
GLXMAW herbicidal rating (GLXMAW Soybean, Williams; rate 0.125 kg/ha): 5.0
Postemergence herbicidal rating ECHCG (ECHOG Barnyardgrass [1]; 0.008 kg/ha): 1.0
Postemergence herbicidal rating ECHCG (ECHOG Barnyardgrass [1]; 0.016 kg/ha): 1.0
Postemergence herbicidal rating ECHCG (ECHOG Barnyardgrass [1]; 0.032 kg/ha): 1.0
Postemergence herbicidal rating ECHCG (ECHOG Barnyardgrass [1]; 0.062 kg/ha): 1.0
Postemergence herbicidal rating SETVI (SETVI Foxtail, Green; 0.008 kg/ha): 1.0
Postemergence herbicidal rating SETVI (SETVI Foxtail, Green; 0.016 kg/ha): 7.0
Postemergence herbicidal rating SETVI (SETVI Foxtail, Green; 0.032 kg/ha): 9.0
Postemergence herbicidal rating SETVI (SETVI Foxtail, Green; 0.062 kg/ha): 9.0
ECHCG herbicidal rating (ECHOG Barnyardgrass [2]; rate 0.016 kg/ha): 2.0
ECHCG herbicidal rating (ECHOG Barnyardgrass [2]; rate 0.032 kg/ha): 4.0
ECHCG herbicidal rating (ECHOG Barnyardgrass [2]; rate 0.062 kg/ha): 7.0
ECHCG herbicidal rating (ECHOG Barnyardgrass [2]; rate 0.125 kg/ha): 7.0
Postemergence herbicidal rating ORYSAT (ORYSAT Rice, Tebonnet [3]; 0.008 kg/ha): 2.0
Postemergence herbicidal rating ORYSAT (ORYSAT Rice, Tebonnet [3]; 0.016 kg/ha): 2.0
Postemergence herbicidal rating ORYSAT (ORYSAT Rice, Tebonnet [3]; 0.032 kg/ha): 2.0
Postemergence herbicidal rating ORYSAT (ORYSAT Rice, Tebonnet [3]; 0.062 kg/ha): 3.0
ORYSAT herbicidal rating (ORYSAT Rice, Tebonnet [4]; rate 0.016 kg/ha): 0.0
ORYSAT herbicidal rating (ORYSAT Rice, Tebonnet [4]; rate 0.032 kg/ha): 1.0
ORYSAT herbicidal rating (ORYSAT Rice, Tebonnet [4]; rate 0.062 kg/ha): 3.0
ORYSAT herbicidal rating (ORYSAT Rice, Tebonnet [4]; rate 0.125 kg/ha): 4.0
Postemergence herbicidal rating TRZAWR ([5]; 0.008 kg/ha): 2.0
Postemergence herbicidal rating TRZAWR ([5]; 0.016 kg/ha): 2.0
Postemergence herbicidal rating TRZAWR ([5]; 0.032 kg/ha): 2.5
Postemergence herbicidal rating TRZAWR ([5]; 0.062 kg/ha): 3.0
Postemergence herbicidal rating GALAP (GALAP Galium [6]; 0.008 kg/ha): 0.0
Postemergence herbicidal rating GALAP (GALAP Galium [6]; 0.016 kg/ha): 1.0
Postemergence herbicidal rating GALAP (GALAP Galium [6]; 0.032 kg/ha): 1.0
Postemergence herbicidal rating GALAP (GALAP Galium [6]; 0.062 kg/ha): 3.0
ABUTH herbicidal rating (ABUTH Velvetleaf; rate 0.016 kg/ha): 6.0
ABUTH herbicidal rating (ABUTH Velvetleaf; rate 0.032 kg/ha): 9.0
ABUTH herbicidal rating (ABUTH Velvetleaf; rate 0.062 kg/ha): 9.0
ABUTH herbicidal rating (ABUTH Velvetleaf; rate 0.125 kg/ha): 9.0
GALAP herbicidal rating (GALAP Galium [7]; rate 0.016 kg/ha): 0.0
GALAP herbicidal rating (GALAP Galium [7]; rate 0.032 kg/ha): 0.0
GALAP herbicidal rating (GALAP Galium [7]; rate 0.062 kg/ha): 1.0
GALAP herbicidal rating (GALAP Galium [7]; rate 0.125 kg/ha): 8.0
TRZAWR herbicidal rating ([8]; rate 0.016 kg/ha): 1.0
TRZAWR herbicidal rating ([8]; rate 0.032 kg/ha): 1.0
TRZAWR herbicidal rating ([8]; rate 0.062 kg/ha): 2.0
TRZAWR herbicidal rating ([8]; rate 0.125 kg/ha): 2.0
Postemergence herbicidal rating AMBEL (AMBEL Ragweed, Common; 0.008 kg/ha): 7.0
Postemergence herbicidal rating AMBEL (AMBEL Ragweed, Common; 0.016 kg/ha): 7.0
Postemergence herbicidal rating AMBEL (AMBEL Ragweed, Common; 0.032 kg/ha): 6.0
